The values below come from patent US9676771B2, “Compounds for inhibiting drug-resistant strains of HIV-1 integrase” (priority 2013, dated 2017).

For one data set, the target named is HIV-1 integrase (Human immunodeficiency virus type 1 group M subtype B, UniProt P12497). As to the kind of experiment: biochemical. The data set is classed as biochemical. As for the experimental part:
In Vitro Integrase Assay.
Integrase reactions were carried out by adding drugs or an equivalent volume of 100% dimethyl sulfoxide (DMSO; used as the drug solvent) to a mixture of 20 nM DNA and 400 nM integrase in 50 mM morpholinepropanesulfonic acid (pH 7.2), 7.5 mM MgCl2, and 14 mM 2-mercaptoethanol. Reactions were performed at 37° C. for 2 h and quenched by the addition of an equal volume of loading buffer (formamide containing 1% sodium dodecyl sulfate, 0.25% bromophenol blue, and xylene cyanol). […] Dried gels were visualized using a Typhoon 8600 (GE Healthcare, Piscataway, N.J.). Densitometric analyses were performed using ImageQuant 5.1 software from GE Healthcare.

A further data set can be described thus: in vitro. The data set is classed as cell-based, human. Conditions: human, Table 3; 50% reduction in the level of ATP in HOS cells. How it is done:
Cellular Cytotoxicity Assay.
On the day of the screen, cells were treated with compounds at the appropriate concentration range chosen and incubated at 37° C. for 48 hrs. Cytotoxicity was measured by monitoring ATP levels via a luciferase reporter assay. Cells were lysed in 50 μL cell lysis buffer (PerkinElmer, Waltham, Mass.) and shaken at 700 rpm at room temperature for 5 mins After the addition of 50 μL of ATPlite buffer (PerkinElmer) directly onto the lysed cells and shaking at 700 rpm at room temperature for 5 mins, ATP levels were monitored by measuring luciferase activity using a microplate reader. Activity was normalized to cytotoxicity in the absence of target compounds. KaleidaGraph (Synergy Software, Reading, Pa.) was used to perform regression analysis on the data. CC50 values were determined from the fit model.

In data set [1] the test system is HIV-1 constructs containing wild-type IN. The data set can be described thus: microbe, parasite or virus in culture. The data set is classed as cell-based. Conditions: Human immunodeficiency virus 1; Table 3; WT IN; read-out: EC50 (nM, WT). From the text: Single-Round HIV-1 Infectivity Assay.
Human embryonyl kidney cell culture cell line 293 was acquired from the American type Culture Collection (ATCC).
The virus-containing supernatants were then harvested, clarified by low-speed centrifugation, filtrated, and diluted for preparation in infection assays. […] Activity was normalized to infectivity in the absence of target compounds. KaleidaGraph (Synergy Software, Reading, Pa.) was used to perform regression analysis on the data. EC50 values were determined from the fit model.

Where [2] appears, read: Table 1, 3′-processing, read-out: IC50 Values 3′-Processing.
The mark [3] stands for this setting: Table 1, strand transfer, read-out: IC50 Values Strand transfer.
The mark [4] stands for this setting: Table 4, strand transfer, read-out: IC50 (Strand Transfer).
Where [5] appears, read: read-out: IC50 (3^+-Processing).
[6] abbreviates: read-out: IC50 (Strand Transfer).
The mark [7] stands for this setting: Table 4, 3′-processing, read-out: IC50 (3^+-Processing).

Read-outs that look alike come from different tables or passages of the source.

Take `O=C(NCc1ccc(F)c(F)c1)c1c(O)c2cccnc2[nH]c1=O` [XZ368, N-(3,4-difluorobenzyl)-4-hydroxy-2-oxo-1,2-dihydro-1,8-naphthyridine-3-carboxamide]: the results for the IC50 on HIV-1 integrase (setting [2]) and at HIV-1 integrase (setting [3]) were 93 ± 8 µM and 8.1 ± 1.8 µM, respectively.

Take `O=C(NCc1ccc(F)cc1F)c1cc2cccc(O)c2n(O)c1=O` [XZ369, N-(2,4-difluorobenzyl)-1,8-dihydroxy-2-oxo-1,2-dihydroquinoline-3-carboxamide]: the IC50 – broadly, the midpoint of a concentration-inhibition curve – on HIV-1 integrase (setting [2]) amounted to 43 ± 5 µM; at HIV-1 integrase (setting [3]) it was 18 ± 7 µM.

As to `COC(=O)CNc1c(C(=O)NCc2ccc(F)cc2F)c(=O)n(O)c2nc(N3CCCCC3)ccc12` [XZ411, methyl 2-((3-((2,4-difluorobenzyl)carbamoyl)-1-hydroxy-2-oxo-7-(piperidin-1-yl)-1,2-dihydro-1,8-naphthyridin-4-yl)amino)acetate], the IC50 at HIV-1 integrase (setting [4]) is 96 ± 40 µM.

Turning to `O=C(NCc1ccc(F)cc1F)c1c(O)c2cccnc2[nH]c1=O` [XZ352, N-(2,4-difluorobenzyl)-4-hydroxy-2-oxo-1,2-dihydro-1,8-naphthyridine-3-carboxamide], the figures for the half-maximal inhibitory concentration (IC50) on HIV-1 integrase (setting [2]) and at HIV-1 integrase (setting [3]) were greater than 333 µM and 7.1 ± 1.8 µM, respectively.

As for `O=C(NCc1ccc(F)c(F)c1)c1cc2cccc(O)c2n(O)c1=O` [XZ375, N-(3,4-difluorobenzyl)-1,8-dihydroxy-2-oxo-1,2-dihydroquinoline-3-carboxamide], the half-maximal inhibitory concentration (IC50) at HIV-1 integrase (setting [2]) turned out to be 24 ± 3 µM; on HIV-1 integrase (setting [3]) it was 0.78 ± 0.22 µM.

Turning to `NCCNc1c(C(=O)NCc2ccc(F)cc2F)c(=O)n(O)c2ncccc12` [XZ403, 4-((2-aminoethyl)amino)-N-(2,4-difluorobenzyl)-1-hydroxy-2-oxo-1,2-dihydro-1,8-naphthyridine-3-carboxamide], the 50% cytotoxic concentration (CC50) – broadly, the concentration at which the toxic effect on the cells reaches its halfway point – in the data set “in vitro” amounted to 9.6 ± 3.7 µM. Moreover, the figures for the half-maximal inhibitory concentration (IC50) at HIV-1 integrase (setting [5]) and on HIV-1 integrase (setting [6]) were 4.5 ± 0.2 µM and 0.039 ± 0.006 µM, respectively. The concentration giving a half-maximal response (EC50) (as a rule, the concentration giving half of the maximal effect) in data set [1] is 34.7 ± 10.5 nM.

Turning to `Nc1c(C(=O)NCc2ccc(F)cc2F)c(=O)n(O)c2nc(N3CCOCC3)ccc12` [XZ413, 4-amino-N-(2,4-difluorobenzyl)-1-hydroxy-7-morpholino-2-oxo-1,2-dihydro-1,8-naphthyridine-3-carboxamide], the IC50 on HIV-1 integrase (setting [7]) is greater than 333 µM; on HIV-1 integrase (setting [4]), 54 ± 10 µM.

On to `CNc1c(C(=O)NCc2ccc(F)cc2F)c(=O)n(O)c2ncccc12` [XZ371, N-(2,4-difluorobenzyl)-1-hydroxy-4-(methylamino)-2-oxo-1,2-dihydro-1,8-naphthyridine-3-carboxamide], for which the CC50 in the data set “in vitro” is greater than 250 µM. Also, the IC50 at HIV-1 integrase (setting [5]) worked out at 3.7 ± 0.4 µM; on HIV-1 integrase (setting [6]) it was 0.027 ± 0.004 µM. Besides, in data set [1], the EC50 is 3.1 ± 0.6 nM.

For `Nc1c(C(=O)NCc2ccc(F)cc2F)c(=O)n(O)c2nc(N3CCCCC3)ccc12` [XZ410, 4-amino-N-(2,4-difluorobenzyl)-1-hydroxy-2-oxo-7-(piperidin-1-yl)-1,2-dihydro-1,8-naphthyridine-3-carboxamide], the IC50 on HIV-1 integrase (setting [7]) is greater than 333 µM; on HIV-1 integrase (setting [4]), 54 ± 18 µM.

On to `CC(C)Nc1c(C(=O)NCc2ccc(F)cc2F)c(=O)n(O)c2ncccc12` [XZ381, N-(2,4-difluorobenzyl)-1-hydroxy-4-(isopropylamino)-2-oxo-1,2-dihydro-1,8-naphthyridine-3-carboxamide], for which, in “in vitro”, the CC50 was greater than 250 µM. In addition, the IC50 at HIV-1 integrase (setting [5]) is 1.8 ± 0.2 µM; on HIV-1 integrase (setting [6]), 0.016 ± 0.004 µM. Moreover, the half-maximal effective concentration (EC50) in data set [1] was found to be 7.2 ± 3 nM.

Regarding `O=C(NCc1ccc(F)cc1F)c1c(NCCc2ccccc2)c2cccnc2n(O)c1=O` [XZ382, N-(2,4-difluorobenzyl)-1-hydroxy-2-oxo-4-(phenethylamino)-1,2-dihydro-1,8-naphthyridine-3-carboxamide], the CC50 in the data set “in vitro” is greater than 250 µM. Besides, the IC50 is 8 ± 1.5 µM at HIV-1 integrase (setting [5]) and 0.05 ± 0.012 µM on HIV-1 integrase (setting [6]). Moreover, in data set [1], the EC50 amounted to 14.1 ± 7.9 nM.

As to `NCc1ccc(-c2ccc(Nc3c(C(=O)NCc4ccc(F)cc4F)c(=O)n(O)c4ncccc34)cc2)cc1` [XZ389, 4-((4′-(aminomethyl)-[1,1′-biphenyl]-4-yl)amino)-N-(2,4-difluorobenzyl)-1-hydroxy-2-oxo-1,2-dihydro-1,8-naphthyridine-3-carboxamide], the CC50 in “in vitro” stood at 0.414 µM. Besides, the IC50 at HIV-1 integrase (setting [7]) is greater than 333 µM; on HIV-1 integrase (setting [4]), 29 ± 13 µM. Also, in data set [1], the EC50 is 411 ± 30 nM.

`O=C(NCc1ccc(F)cc1F)c1c(O)c2ccc(N3CCOCC3)nc2n(O)c1=O` [XZ412, N-(2,4-difluorobenzyl)-1,4-dihydroxy-7-morpholino-2-oxo-1,2-dihydro-1,8-naphthyridine-3-carboxamide]: the concentration for half-maximal inhibition (IC50) is greater than 333 µM on HIV-1 integrase (setting [7]) and 1.9 ± 0.2 µM at HIV-1 integrase (setting [4]).

Take `COC(=O)[C@@H](Nc1c(C(=O)NCc2ccc(F)cc2F)c(=O)n(O)c2ncccc12)c1ccccc1` [XZ396, (S)-methyl 2-((3-((2,4-difluorobenzyl)carbamoyl)-1-hydroxy-2-oxo-1,2-dihydro-1,8-naphthyridin-4-yl)amino)-2-phenylacetate]: the CC50 in “in vitro” is greater than 250 µM.

On to `COC(=O)[C@H](CO)Nc1c(C(=O)NCc2ccc(F)cc2F)c(=O)n(O)c2ncccc12` [XZ398, (S)-methyl 2-((3-((2,4-difluorobenzyl)carbamoyl)-1-hydroxy-2-oxo-1,2-dihydro-1,8-naphthyridin-4-yl)amino)-3-hydroxypropanoate], for which the CC50 in “in vitro” was greater than 250 µM. Further, the figures for the IC50 at HIV-1 integrase (setting [5]) and on HIV-1 integrase (setting [6]) were 5.8 ± 0.5 µM and 0.0084 ± 0.0032 µM, respectively. In data set [1], the half-maximal effective concentration (EC50) turned out to be 9.7 ± 3 nM.

Consider `CCCCCNc1c(C(=O)NCc2ccc(F)cc2F)c(=O)n(O)c2ncccc12` [XZ380, N-(2,4-difluorobenzyl)-1-hydroxy-2-oxo-4-(pentylamino)-1,2-dihydro-1,8-naphthyridine-3-carboxamide], for which the cytotoxic concentration (CC50) in the data set “in vitro” came to 94.2 ± 24.4 µM. Further, the half-maximal inhibitory concentration (IC50) is 8.2 ± 1.6 µM on HIV-1 integrase (setting [5]) and 0.024 ± 0.009 µM on HIV-1 integrase (setting [6]). Besides, in data set [1], the EC50 was found to be 7.4 ± 1.4 nM.

For `O=C(NCc1ccc(F)c(Cl)c1)c1c(O)c2cccnc2[nH]c1=O` [XZ366, N-(3-chloro-4-fluorobenzyl)-4-hydroxy-2-oxo-1,2-dihydro-1,8-naphthyridine-3-carboxamide], the IC50 on HIV-1 integrase (setting [2]) was found to be 125 ± 15 µM; on HIV-1 integrase (setting [3]), 7.8 ± 1.1 µM.

`COC(=O)[C@@H](CO)Nc1c(C(=O)NCc2ccc(F)cc2F)c(=O)n(O)c2ncccc12` [XZ399, (R)-methyl 2-((3-((2,4-difluorobenzyl)carbamoyl)-1-hydroxy-2-oxo-1,2-dihydro-1,8-naphthyridin-4-yl)amino)-3-hydroxypropanoate]: in the data set “in vitro”, the cytotoxic concentration (CC50) was greater than 250 µM. The values for the half-maximal inhibitory concentration (IC50) on HIV-1 integrase (setting [5]) and at HIV-1 integrase (setting [6]) were 4.4 ± 0.5 µM and 0.013 µM, respectively. Further, the EC50 in data set [1] was found to be 14.2 ± 3.71 nM.

`O=C(NCc1ccc(F)cc1F)c1cc2ccccc2n(O)c1=O` [XZ353, N-(2,4-difluorobenzyl)-1-hydroxy-2-oxo-1,2-dihydroquinoline-3-carboxamide]: the 50% inhibitory concentration (IC50) is greater than 333 µM at HIV-1 integrase (setting [2]) and 19.7 ± 2.7 µM on HIV-1 integrase (setting [3]).

Turning to `O=C(NCc1ccc(F)cc1)c1c(O)c2cccnc2[nH]c1=O` [XZ364, N-(4-fluorobenzyl)-4-hydroxy-2-oxo-1,2-dihydro-1,8-naphthyridine-3-carboxamide], the half-maximal inhibitory concentration (IC50) was 136 ± 16 µM at HIV-1 integrase (setting [2]) and 5.1 ± 1.5 µM on HIV-1 integrase (setting [3]).

On to `O=C(NCc1ccc(F)cc1F)c1c(O)c2ccc(N3CCCCC3)nc2n(O)c1=O` [XZ409, N-(2,4-difluorobenzyl)-1,4-dihydroxy-2-oxo-7-(piperidin-1-yl)-1,2-dihydro-1,8-naphthyridine-3-carboxamide], for which the results for the 50% inhibitory concentration (IC50) on HIV-1 integrase (setting [7]) and on HIV-1 integrase (setting [4]) were greater than 333 µM and 70 ± 16 µM, respectively.

Consider `COC(=O)CNc1c(C(=O)NCc2ccc(F)cc2F)c(=O)n(O)c2nc(N3CCOCC3)ccc12` [XZ414, methyl 2-((3-((2,4-difluorobenzyl)carbamoyl)-1-hydroxy-7-morpholino-2-oxo-1,2-dihydro-1,8-naphthyridin-4-yl)amino)acetate], for which the IC50 at HIV-1 integrase (setting [4]) stood at 6.2 ± 0.8 µM.

For `O=C(NCc1ccc(F)c(Cl)c1)c1cc2cccc(O)c2n(O)c1=O` [XZ374, N-(3-chloro-4-fluorobenzyl)-1,8-dihydroxy-2-oxo-1,2-dihydroquinoline-3-carboxamide], the IC50 on HIV-1 integrase (setting [2]) is 17 ± 1 µM; on HIV-1 integrase (setting [3]), 0.53 ± 0.13 µM.

In the case of `COC(=O)[C@H](C)Nc1c(C(=O)NCc2ccc(F)cc2F)c(=O)n(O)c2ncccc12` [XZ394, (S)-methyl 2-((3-((2,4-difluorobenzyl)carbamoyl)-1-hydroxy-2-oxo-1,2-dihydro-1,8-naphthyridin-4-yl)amino)propanoat], the CC50 in “in vitro” was greater than 250 µM. Moreover, in data set [1], the concentration giving a half-maximal response (EC50) worked out at 4.2 ± 1.6 nM.

Take `COc1cccc2cc(C(=O)NCc3ccc(F)cc3F)c(=O)n(O)c12` [XZ370, N-(2,4-difluorobenzyl)-1-hydroxy-8-methoxy-2-oxo-1,2-dihydroquinoline-3-carboxamide]: the IC50 on HIV-1 integrase (setting [2]) and on HIV-1 integrase (setting [3]) was greater than 333 µM throughout.
